In patent US12258338B2, “Modulators of the integrated stress response pathway” (EVOTEC INTERNATIONAL GMBH, priority 2019, dated 2025):

Legend:
[1] = tested on: ATF4; experiment: HEK-ATF4 High Content Imaging assay (prevention of Tunicamycin induced ISR; ATF4 signal ratio between nucleus and cytoplasm); assay type: cell-based; details: Homo sapiens; Wild-type HEK293 cells, Tunicamycin induced ISR, 6 h; read-out: IIEK-ATF4 Activity
Method: HEK-ATF4 High Content Imaging Assay
Example compounds were tested in the HEK-ATF4 High Content Imaging assay to assess their pharmacological potency to prevent Tunicamycin induced ISR. Wild-type HEK293 cells were plated in 384-well imaging assay plates at a density of 12,000 cells per well in growth medium (containing DMEM/F12, 10% FBS, 2 mM L-Glutamine, 100 U/mL Penicillin-100 μg/mL Streptomycin) and incubated at 37° C., 5% CO2. 24 h later, the medium was changed to 50 μL assay medium per well (DMEM/F12, 0.3% FBS, 2 mM L-Glutamine, 100 U/mL Penicillin-100 μg/mL Streptomycin). Example compounds were serially diluted in DMSO, spotted into intermediate plates and prediluted with assay medium containing 3.3 μM Tunicamycin to give an 11-fold excess of final assay concentration. In addition to the example compound testing area, the plates also contained multiples of control wells for assay normalization purposes, wells containing Tunicamycin but no example compounds (High control), as well as wells containing neither example compound nor Tunicamycin (Low control). The assay was started by transferring 5 μL from the intermediate plate into the assay plates, followed by incubation for 6 h at 37° C., 5% CO2. Subsequently, cells were fixed (4% PFA in PBS, 20 min at r.t.) and submitted to indirect ATF4 immunofluorescence staining (primary antibody rabbit anti ATF4, clone D4B8, Cell Signaling Technologies; secondary antibody Alexa Fluor 488 goat anti-rabbit IgG (H+L), Thermofisher Scientific). Nuclei were stained using Hoechst dye (Thermofisher Scientific), and plates were imaged on an Opera Phenix High Content imaging platform equipped with 405 nm and 488 nm excitation. Finally, images were analyzed using script based algorithms. The main readout HEK-ATF4 monitored the ATF4 signal ratio between nucleus and cytoplasm. Tunicamycin induced an increase in the overall ATF4 ratio signal, which was prevented by ISR modulating example compounds. In addition, HEK-CellCount readout was derived from counting the number of stained nuclei corresponding to healthy cells. This readout served as an internal toxicity control.

[2] = target: T1, human ERG potassium channel (hERG) (Homo sapiens, UniProt Q12809); experiment: hERG channel tail current recording using in vitro Rapid ICE (automated patch-clamp, QPatch HTX); assay type: cell-based; details: Table 26
T1 construct: expressed in transfected cells; host or cells: HEK293, stably transfected, tetracycline-inducible promoter
Method: Protocol—Measure of the Effect on hERG Channel by Tail Current Recording Using In Vitro Rapid ICE
The potency of the example compounds in inhibiting human ERG potassium channel (hERG) tail current was assessed in a recombinant HEK293 cell line stably transfected with hERG cDNA under an inducible promoter, using Rapid ICE (rapid ion channel electrophysiology) assay. Rapid ICE is an automated patch-clamp assay utilizing the QPatch HTX system (Sophion Bioscience A/S). Briefly, inducible HEK hERG cells were cultivated in minimum essential medium supplemented with 10% FBS, 1% non-essential amino acids, 1% sodium pyruvate, 2 mM 1-glutamine, 15 μg/mL blasticidin, and 100 μg/mL hygromycin. hERG channel expression induction was obtained by adding 10 μg/mL tetracycline for 24, 48, or 72 h before recordings.
On the day of the experiment, cells were detached with TrypLE and prepared to be loaded on the instrument. Cells were resuspended in 7 mL of Serum-Free Media containing 25 mM Hepes and soybean trypsin inhibitor and immediately placed in the cell storage tank of the machine. The composition of the extracellular buffer was (mM): NaCl 137, KCl 4, CaCl2 1.8, MgCl2 1.0, d-glucose 10, N-2-hydroxyethylpiperazine-N′-2-ethanesulfonic acid (HEPES) 10, pH 7.4 with 1 M NaOH. The composition of the intracellular solution was (mM): KCl 130, MgCl2 1.0, ethylene glycol-bis(β-aminoethyl ether)-N,N,N′,N′-tetraacetic acid (EGTA) 5, MgATP 5, HEPES 10, pH 7.2 with 1 M KOH. The voltage protocol included the following steps: step from −80 to −50 mV for 200 ms, +20 mV for 4.8 s, step to −50 mV for 5 s, then step to the holding potential of −80 mV. Compounds were dissolved in DMSO and diluted in extracellular buffer to achieve final test concentrations (0.3, 3, and 30 μM) in 0.3% DMSO. The voltage protocol was run and recorded continuously during the experiment. The vehicle, corresponding to 0.3% DMSO in extracellular buffer was then applied for 3 min, followed by the test substance in triplicate. The standard combined exposure time was 5 min. The average of tail current amplitude values recorded from four sequential voltage pulses was used to calculate for each cell the effect of the test substance by calculating the residual current (% control) compared with vehicle pretreatment. Data were reported as % inhibition for each concentration tested, and IC50 values were estimated using QPatch software. At least two cells were tested, and even more if results diverged.

T1 sequence (Q12809 whole entry): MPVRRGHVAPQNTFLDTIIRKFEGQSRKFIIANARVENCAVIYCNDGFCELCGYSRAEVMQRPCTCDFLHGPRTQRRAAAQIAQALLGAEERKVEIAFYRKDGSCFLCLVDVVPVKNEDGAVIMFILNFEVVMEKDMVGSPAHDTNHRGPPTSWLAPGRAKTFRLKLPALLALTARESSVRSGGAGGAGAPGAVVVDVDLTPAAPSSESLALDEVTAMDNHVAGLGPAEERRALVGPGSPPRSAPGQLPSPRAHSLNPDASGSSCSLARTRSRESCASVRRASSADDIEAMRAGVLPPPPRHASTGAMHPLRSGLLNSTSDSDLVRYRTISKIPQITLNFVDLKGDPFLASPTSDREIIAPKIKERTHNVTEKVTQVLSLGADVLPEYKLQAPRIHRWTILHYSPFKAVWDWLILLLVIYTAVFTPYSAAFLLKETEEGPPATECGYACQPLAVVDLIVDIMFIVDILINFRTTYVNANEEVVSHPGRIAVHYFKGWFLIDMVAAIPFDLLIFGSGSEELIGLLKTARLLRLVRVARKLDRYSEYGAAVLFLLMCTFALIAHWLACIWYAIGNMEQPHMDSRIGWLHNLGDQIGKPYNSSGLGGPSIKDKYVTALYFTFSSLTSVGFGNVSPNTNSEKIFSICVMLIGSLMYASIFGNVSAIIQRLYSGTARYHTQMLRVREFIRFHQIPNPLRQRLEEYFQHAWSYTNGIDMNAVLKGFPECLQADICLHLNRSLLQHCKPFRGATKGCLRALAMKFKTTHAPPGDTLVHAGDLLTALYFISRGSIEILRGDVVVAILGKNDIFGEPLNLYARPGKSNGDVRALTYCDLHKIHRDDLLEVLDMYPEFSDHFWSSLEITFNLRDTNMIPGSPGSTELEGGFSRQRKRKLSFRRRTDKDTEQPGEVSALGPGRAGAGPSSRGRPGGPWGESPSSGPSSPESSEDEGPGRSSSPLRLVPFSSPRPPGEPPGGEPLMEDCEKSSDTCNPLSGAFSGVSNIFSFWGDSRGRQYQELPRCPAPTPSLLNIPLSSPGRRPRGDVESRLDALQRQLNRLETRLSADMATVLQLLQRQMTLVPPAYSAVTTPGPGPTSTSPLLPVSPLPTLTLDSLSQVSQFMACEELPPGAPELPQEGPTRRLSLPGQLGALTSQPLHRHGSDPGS

Row | IC50 [1] | SMILES | IC50 [2]
1 | 500 to 2000 nM | O=C(COc1ccc(Cl)c(F)c1)N[C@H]1CC[C@H](c2nnc(OCC3CC3C(F)(F)F)o2)NC1 (stereo partly drawn) [Example 88, 2-(4-chloro-3-fluorophenoxy)-N-[(3S,6R)-6-(5-{[2-(trifluoromethyl)cyclopropyl]methoxy}-1,3,4-oxadiazol-2-yl)piperidin-3-yl]acetamide] | 1000 to 5000 nM
2 | 1 to 500 nM | CN1C[C@H](NC(=O)COc2ccc(Cl)c(F)c2)CC[C@H]1c1nnc(-c2ccc(Cl)cc2)o1 [Example 44, 2-(4-chloro-3-fluorophenoxy)-N-[(3R,6S)-6-[5-(4-chlorophenyl)-1,3,4-oxadiazol-2-yl]-1-methylpiperidin-3-yl]acetamide] | 1 to 1000 nM
3 | 1 to 500 nM | O=C(COc1ccc(Cl)c(F)c1)N[C@H]1CC[C@H](c2nnc(-c3ccc(Cl)c(F)c3)o2)NC1 [Example 54, 2-(4-chloro-3-fluorophenoxy)-N-[(3S,6R)-6-[5-(4-chloro-3-fluorophenyl)-1,3,4-oxadiazol-2-yl]piperidin-3-yl]acetamide] | 1 to 1000 nM
4 | 1 to 500 nM | CN1C[C@@H](NC(=O)COc2ccc(Cl)c(F)c2)CC[C@@H]1c1nnc(-c2ccc(Cl)cc2)o1 [Example 45, 2-(4-chloro-3-fluorophenoxy)-N-[(3S,6R)-6-[5-(4-chlorophenyl)-1,3,4-oxadiazol-2-yl]-1-methylpiperidin-3-yl]acetamide] | 1 to 1000 nM
5 | 500 to 2000 nM | O=C(COc1ccc(Cl)c(F)c1)N[C@H]1CC[C@H](c2nnc(N3CC(CC(F)(F)F)C3)o2)NC1 [Example 92, 2-(4-chloro-3-fluorophenoxy)-N-[(3S,6R)-6-{5-[3-(2,2,2-trifluoroethyl)azetidin-1-yl]-1,3,4-oxadiazol-2-yl}piperidin-3-yl]acetamide] | 1000 to 5000 nM
6 | 500 to 2000 nM | CC1(OC(F)(F)F)CN(c2nnc([C@H]3CC[C@H](NC(=O)COc4ccc(Cl)c(F)c4)CN3)o2)C1 [Example 93, 2-(4-chloro-3-fluorophenoxy)-N-[(3S,6R)-6-{5-[3-methyl-3-(trifluoromethoxy)azetidin-1-yl]-1,3,4-oxadiazol-2-yl}piperidin-3-yl]acetamide] | > 5000 nM
7 | 2000 to 15000 nM | C[C@@H](Oc1ccc(Cl)cc1)C(=O)N[C@H]1CC[C@H](c2nnc(-c3ccc(C(F)(F)F)cc3)o2)NC1 (single isomer, unassigned) [Example 106] | 1000 to 5000 nM
8 | 1 to 500 nM | O=C(COc1ccc(Cl)c(F)c1)N[C@@H]1CC[C@@H](c2nnc(-c3ccc(Cl)cc3)o2)NC1 [Example 35, 2-(4-chloro-3-fluorophenoxy)-N-[(3R,6S)-6-[5-(4-chlorophenyl)-1,3,4-oxadiazol-2-yl]piperidin-3-yl]acetamide] | 1 to 1000 nM
9 | 1 to 500 nM | O=C(COc1ccc(Cl)c(F)c1)N[C@@H]1CC[C@@H](c2nnc(-c3ccc(Cl)cc3)o2)NC1=O (single isomer, unassigned) [Example 109] | 1 to 1000 nM
10 | 2000 to 15000 nM | O=C(COc1ccc(Cl)c(F)c1)N[C@H]1CC[C@H](c2nnc(-c3ccc(Cl)cc3)o2)NC1=O (single isomer, unassigned) [Example 108] | 1 to 1000 nM

The remaining lines, values behind:

Row | SMILES | IC50 [1] | IC50 [2]
11 | O=C(COc1ccc(Cl)c(F)c1)N[C@H]1CC[C@H](c2nnc(OCCOC3CCC3)o2)NC1 [Example 82, 2-(4-chloro-3-fluorophenoxy)-N-[(3S,6R)-6-[5-(2-cyclobutoxyethoxy)-1,3,4-oxadiazol-2-yl]piperidin-3-yl]acetamide] | 1 to 500 nM | > 5000 nM
12 | O=C(COc1ccc(Cl)c(F)c1)N[C@H]1CC[C@H](c2nnc([C@H]3C[C@@H](OC4CC4)C3)o2)NC1 (single isomer, unassigned) [Example 105] | 500 to 2000 nM | > 5000 nM
13 | CCCCCOc1nnc([C@H]2CC[C@H](NC(=O)COc3ccc(Cl)c(F)c3)CN2)o1 [Example 78, 2-(4-chloro-3-fluorophenoxy)-N-[(3S,6R)-6-[5-(pentyloxy)-1,3,4-oxadiazol-2-yl]piperidin-3-yl]acetamide] | 1 to 500 nM | 1000 to 5000 nM
14 | O=C(COc1ccc(C(F)F)c(Cl)c1)N[C@H]1CC[C@H](c2nnc(OCCOC(F)(F)F)o2)NC1 [Example 113, 2-[3-chloro-4-(difluoromethyl)phenoxy]-N-[(3S,6R)-6-{5-[2-(trifluoromethoxy)ethoxy]-1,3,4-oxadiazol-2-yl}piperidin-3-yl]acetamide] | 1 to 500 nM | 1000 to 5000 nM
15 | O=C(COc1ccc(Cl)c(F)c1)N[C@H]1CC[C@H](c2nnc(OCCOC3CC3)o2)NC1 [Example 80, 2-(4-chloro-3-fluorophenoxy)-N-[(3S,6R)-6-[5-(2-cyclopropoxythoxy)-1,3,4-oxadiazol-2-yl]piperidin-3-yl]acetamide] | 1 to 500 nM | > 5000 nM
16 | O=C(COc1ccc(Cl)c(F)c1)N[C@H]1CC[C@H](c2nnc(OCC3CCC3(F)F)o2)NC1 (stereo partly drawn) [Example 71, 2-(4-chloro-3-fluorophenoxy)-N-[(3S,6R)-6-{5-[(2,2-difluorocyclobutyl)methoxy]-1,3,4-oxadiazol-2-yl}piperidin-3-yl]acetamide] | 500 to 2000 nM | 1000 to 5000 nM
17 | O=C(COc1ccc(Cl)c(Cl)c1)N[C@H]1CC[C@H](c2nnc(OCCOC3CC3)o2)NC1 [Example 86, N-[(3S,6R)-6-[5-(2-cyclopropoxyethoxy)-1,3,4-oxadiazol-2-yl]piperidin-3-yl]-2-(3,4-dichlorophenoxy)acetamide] | 1 to 500 nM | 1000 to 5000 nM
18 | CCCCOc1nnc([C@H]2CC[C@H](NC(=O)COc3ccc(Cl)c(F)c3)CN2)o1 [Example 67, N-[(3S,6R)-6-(5-butoxy-1,3,4-oxadiazol-2-yl)piperidin-3-yl]-2-(4-chloro-3-fluorophenoxy)acetamide] | 1 to 500 nM | 1000 to 5000 nM
19 | CC(F)(F)CCOc1nnc([C@H]2CC[C@H](NC(=O)COc3ccc(Cl)c(F)c3)CN2)o1 [Example 65, 2-(4-chloro-3-fluorophenoxy)-N-[(3S,6R)-6-[5-(3,3-difluorobutoxy)-1,3,4-oxadiazol-2-yl]piperidin-3-yl]acetamide] | 500 to 2000 nM | 1000 to 5000 nM
20 | O=C(COc1ccc(Cl)c(F)c1)N[C@H]1CC[C@H](c2nnc(OCCC3CC3)o2)NC1 [Example 69, 2-(4-chloro-3-fluorophenoxy)-N-[(3S,6R)-6-[5-(2-cyclopropylethoxy)-1,3,4-oxadiazol-2-yl]piperidin-3-yl]acetamide] | 1 to 500 nM | 1 to 1000 nM
21 | CN1C[C@@H](NC(=O)COc2ccc(Cl)c(F)c2)CC[C@@H]1c1nnc(OCCOC(F)(F)F)o1 [Example 101, 2-(4-chloro-3-fluorophenoxy)-N-[(3S,6R)-1-methyl-6-{5-[2-(trifluoromethoxy)ethoxy]-1,3,4-oxadiazol-2-yl}piperidin-3-yl]acetamide] | 1 to 500 nM | > 5000 nM
22 | O=C(COc1ccc(Cl)c(F)c1)N[C@H]1CC[C@H](c2nnc(OC3CC(F)(F)C3)o2)NC1 [Example 72, 2-(4-chloro-3-fluorophenoxy)-N-[(3S,6R)-6-[5-(3,3-difluorocyclobutoxy)-1,3,4-oxadiazol-2-yl]piperidin-3-yl]acetamide] | 2000 to 15000 nM | 1000 to 5000 nM
